Assay results as given in US12594263B2, “CBL inhibitors and compositions for expansion of immune cells” (Nurix Therapeutics, Inc., priority 2019, dated 2026).
“Also recorded” adds a separate entry of the source.

How the values were obtained:
[1] = tested on: human tumor-infiltrating lymphocytes (TIL); assay: Expansion of TIL ex vivo from human tumor fragments (pre-REP, 24-well plate); type: cell-based; details: for Percentage of total cell number relative to IL-2 alone on day 17: alone or with IL-2 6000 IU/mL
Procedure: Samples of human ovarian and colon tumors were obtained from the Cooperative Human Tissue Network (CHTN, c/o Vanderbilt University Medical Center, Nashville, Tenn.). Solid tumor specimens were carefully dissected free of surrounding fatty and necrotic areas. The tumors were sliced into 8 mm^3 (2×2×2 mm^3) fragments under sterile conditions using a scalpel and a scalpel holder.
The plates were placed in a humidified 37° C. incubator with 5% CO2. Half of the medium was replaced every two days after culture initiation. […] Subsequently, half the media was replaced thrice weekly, cultures were split to maintain a cell density of 1×10^6 cells/mL. […] Mitochondrial markers including, Mitotracker, Mitoprobe, and 2-NBDG may also be used to assess differentiation and/or activation of cells.

[2] = tested on: E.G7-OVA tumors; assay: Adoptive transfer of ex vivo expanded OT-1 cells into E.G7-OVA tumor-bearing mice: tumor volume and survival; type: in vivo, mouse
Procedure: (§1) Dead cells were removed (Miltenyi Biotec Cat #130-090-101) prior to transfer in vivo to monitor their trafficking and function in an EG.7 lymphoma model, which expresses the OVA antigen. Approximately five million cells per mouse were transferred to mice having an average tumor burden of about 70 mm^3. Following in vivo transfer of the OT-1 cells, antitumor response was monitored over time and the quality and quantity of immune response were assessed at various time points.
(§2) The expanded OT-1 cells were characterized by FACS analysis and transferred into E.G7-OVA mice, which bear ovalbumin (OVA) expressing tumors. Following in vivo transfer of expanded OT-1 cells, antitumor response was monitored over time and the quality and quantity of immune response was assessed at various time points. Analysis included FACS analysis on blood, tumor, and spleen samples. Analysis also included re-stimulation of splenocytes with OVA Class I peptide to evaluate the multifunctionality of the antigen-specific effector T cells.
(§3) On Day 0, E.G7-OVA cells were implanted into each mouse. On Day 5, approximately 5×10^6 in vitro expanded OT-1 cells were injected into the tail of each mouse. On Day 9, blood was analyzed by FACS. On Day 14, blood, tumor and spleen samples were analyzed by FACS. On Day 27, blood was analyzed by FACS. Tumor volume was measured approximately every five days through about 50 days post implant.

[3] = tested on: OT-1 cells; assay: In vivo frequency, persistence and exhaustion markers of transferred OT-1 cells (blood, spleen, tumor, FACS); set-up: species or system mouse
Procedure: as §1, §2, §3
OT-1 cells were expanded according to the previous examples and administered to E.G7-OVA mice, which bear ovalbumin (OVA) expressing tumors. The cells were evaluated for their in vivo properties.
Expanded OT-1 cells were assessed in blood 4 days and 22 days after transfer.
Expanded OT-1 cells were assessed in tumors 4 days after transfer.

[4] = tested on: E.G7-OVA tumor cells; assay: Tumor re-challenge of long term survivors 149 days after OT-1 transfer; type: in vivo, mouse
Text: To determine whether OT-1 cells are capable of long-term tumor protection, the long term survivors of the above experiment (FIG. 12) were re-challenged with a lethal dose of E.G7-OVA tumor cells 149 days after the initial adoptive transfer of the in vitro expanded OT-1 cells. Re-challenge induced OT-1 cell expansion at the site engrafted with E.G7-OVA tumor cells expressing ovalbumin antigen, thereby effectively controlling tumor growth (FIG. 21).

[5] = tested on: breast TIL; assay: CDR3 diversity of expanded breast TIL (iRepertoire sequencing); type: cell-based, human; details: 14 days in GREX 10 (FIGS. 32A-C)
Procedure: TIL were cultured for 14 days in GREX™10. […] The raw data were analyzed by iRepertoire using IRmap programs with a modified Smith-Waterman algorithm. Using CDR3algebra software, the calculation of shared CDR3s across samples with the indicated treatment was assessed. […] All CDR3 frequencies were scaled to 10 million reads to account for differences in read depth among samples. Data was normalized so that each uCDR3-VDJ combination was treated as a quantity of 1 regardless of read count, and then analyzed for V usage and J usage.

[6] = Compound stability in complete RPMI with 10% human serum (mass spectrometry); type: physicochemical
Procedure: To assess compound stability, at day 1, 1 μM compound 103 or DMSO was added to complete RMPI containing 10% human serum and stored at either 4° C., 22° C. or 37° C. over an 11 day time period. Concentration of compound 103 was assessed at each indicated timepoint and storage temperature by mass spectrometry. Compound 103 was stable for at least 11 days in RPMI medium (FIG. 33).

[7] = second study, anti-CD3 stimulated OT-1 cells

Which results are given for `C[C@@H]1CN(Cc2cc3c(c(C(F)(F)F)c2)CN(c2cccc(C4(Cc5nncn5C)COC4)c2)C3=O)CCC1(F)F` [Compound 103]?
Expansion of TIL in the absence of IL-2 ([1]; 0.1-10 μM Cbl inhibitor, no IL-2): considerable expansion of TIL; Percentage of total cell number relative to IL-2 alone on day 17 ([1]; TIL1 (ovary), 0.1 μM Cbl-i): 90%; Percentage of total cell number relative to IL-2 alone on day 17 ([1]; TIL1 (ovary), 1.0 μM Cbl-i): 75%; Percentage of total cell number relative to IL-2 alone on day 17 ([1]; TIL1 (ovary), 10 μM Cbl-i): 60%; Percentage of total cell number relative to IL-2 alone on day 17 ([1]; TIL2 (ovary), 0.1 μM Cbl-i): 30%; Percentage of total cell number relative to IL-2 alone on day 17 ([1]; TIL2 (ovary), 1.0 μM Cbl-i): 26%; Percentage of total cell number relative to IL-2 alone on day 17 ([1]; TIL2 (ovary), 10 μM Cbl-i): 22%; Percentage of total cell number relative to IL-2 alone on day 17 ([1]; TIL3 (ovary), 0.1 μM Cbl-i): 30%; Percentage of total cell number relative to IL-2 alone on day 17 ([1]; TIL3 (ovary), 1.0 μM Cbl-i): 43%; Percentage of total cell number relative to IL-2 alone on day 17 ([1]; TIL3 (ovary), 10 μM Cbl-i): 16%; Percentage of total cell number relative to IL-2 alone on day 17 ([1]; TIL4 (colon), 0.1 μM Cbl-i): 45%; Percentage of total cell number relative to IL-2 alone on day 17 ([1]; TIL4 (colon), 1.0 μM Cbl-i): 58%; Percentage of total cell number relative to IL-2 alone on day 17 ([1]; TIL4 (colon), 10 μM Cbl-i): 54%; Percentage of total cell number relative to IL-2 alone on day 17 ([1]; TIL5 (ovary), 0.1 μM Cbl-i): 50%; Percentage of total cell number relative to IL-2 alone on day 17 ([1]; TIL5 (ovary), 1.0 μM Cbl-i): 70%; Percentage of total cell number relative to IL-2 alone on day 17 ([1]; TIL5 (ovary), 10 μM Cbl-i): 90%; Percentage of total cell number relative to IL-2 alone on day 17 ([1]; TIL6 (ovary), 0.1 μM Cbl-i): 93%; Percentage of total cell number relative to IL-2 alone on day 17 ([1]; TIL6 (ovary), 1.0 μM Cbl-i): 87%; Percentage of total cell number relative to IL-2 alone on day 17 ([1]; TIL6 (ovary), 10 μM Cbl-i): 80%; Anti-tumor phenotype of transferred T cells ([2]; 3-day ex vivo exposure, alone or in combination with IL-2): conferred a lasting anti-tumor phenotype for over a month; Potency of expanded CD8+ OT-1 cells (tumor volume, FIGS. 11A and 11B) ([2]; expansion at 1 μM, IL-2 300 IU, E.G7-OVA mice): at least as potent as CD8+OT-1 cells expanded with IL-2; Rejection of established tumors by expanded OT-1 cells (FIG. 9) ([2]; mice subcutaneously implanted with E.G7-OVA cells): potent effectors capable of rejecting established tumors; Long-term survival (FIG. 12B) [2, 7]: improved long-term survival; Potency of expanded OT-1 cells, inhibition of tumor growth (FIG. 12A) [2, 7]: increased potency compared to IL-2 expanded cells; also recorded: increased potency compared to TL-2 expanded cells; Cells expressing stem markers TCF1+, PD-1+ and TIM-3+ ([3]; OT-1 cells after transfer): greater percentage of cells that expressed stem markers; Frequency of OT-1 cells in total CD8+ T cells and CD45+ cells and persistence ([3]; blood, 4 or 9 days after transfer (FIG. 10)): higher frequency in total CD8+ T cells and CD45+ cells and in vivo persistence in the blood; Frequency of OT-1 cells in total CD45+ cells and persistence ([3]; blood, 4 days and 22 days after transfer (FIGS. 13A, 13B)): higher frequency in total CD45+ cells and persisted longer than cells expanded with IL-2 alone; Expression of exhaustion markers PD1, TIM3, LAG3 ([3]; tumor, versus IL-2 alone (FIGS. 14B, 14C)): lower level of expression of exhaustion markers; Tumor infiltration, frequency of OT-1 cells in total CD45+ cells ([3]; tumors, 4 days after transfer (FIG. 14A)): increased ability to infiltrate the tumor; Protection from tumor re-challenge (FIG. 21) ([4]; OT-1 cells expanded in vitro): potent memory cells capable of protecting mice from tumor re-challenge; Number of OT-1 cells in blood 149 days after initial adoptive transfer ([4]; before re-challenge (FIG. 22A)): higher number in the blood; Recall response, number of OT-1 cells per ml of blood ([4]; day 5 after tumor re-challenge, versus IL-2 alone (FIG. 22B)): significantly more rapid recall response; Unique CDR3s [5]: increased; Stability in RPMI medium ([6]; 1 μM, complete RPMI with 10% human serum, 4° C., 22° C. or 37° C. (FIG. 33)): at least 11 days; Stability at multiple temperatures (figure legend) ([6]; 4° C.-37° C., FIG. 33): stable at multiple temperatures (4° C.-37° C.) over an 11 day period
